Test results from US20210015134A1, “CONSUMABLES” (Givaudan S.A., priority 2006, published 2021).

Assays:
Type in all cases: in vivo
[1] = system: sweet sensitive panelists; assay: Paired comparison of sweetness enhancers in water versus sucrose (Example 4, modified)
Procedure: Paired Comparisons of Sweetness Enhancers and Mixtures Thereof in Water and 7% Sucrose
Samples of sweetness enhancers were prepared in water or 7% sucrose. One, two or three sweetness enhancers were used in a sample. All samples were presented to panelists at ambient temperature. The sensory evaluation was conducted using a paired comparison method. […] Samples were paired randomly and presented in unidentifiable pairs of two (left and right) to the panelists in random order. The sample on the left was tasted first, followed by rinsing the mouth with water, then tasting the sample on the right. Once completing the sequence, each panelist ranked the pair of samples for sweetness then evaluated samples with respect to one another with the following descriptors (in ascending order): […]

[2] = system: sweet sensitive panelists; assay: Ranking test, near threshold sweetness isointensity of enhancer in water (Example 3b)
Procedure: The sensory evaluation was conducted using a ranking method. Samples at ambient temperature were randomly presented in 15 ml blind aliquots (unidentifiable by panelists). […] After tasting each sample, the mouth was rinsed thoroughly with water at ambient temperature prior to tasting the next sample. […] They were asked to rank the samples from low to high with respect to perceived sweet taste.

[3] = system: sweet sensitive panelists; assay: Comparative sensory evaluation of sweetness enhancers in sweetener solution or water (Example 1)
Procedure: Comparative sensory evaluation of sweetness enhancers in 2 or 7% sucrose
The test samples contained the potential sweetness enhancers in 0% sucrose (water), 2% sucrose, or 7% sucrose, and control samples of 0%, 2% and 7% sucrose without any additive. The sensory evaluations were conducted as follows. All samples were presented at ambient temperature in 15 ml aliquots to panels consisting of 5-9 sweet sensitive subjects of varying sweet sensitivity. After tasting each sample, the mouth was rinsed thoroughly with water at ambient temperature prior to tasting the next sample. The sucrose positive control (2% or 7%) was presented first and served as the sweetness reference to which all sweetness enhancer/sucrose combinations were directly compared.
One tasting sequence included tasting the sucrose control first, rinsing with water, tasting the sweetness enhancer/sucrose sample, rinsing with water followed by tasting the sucrose control again. Once the sequence was completed, each panelist chose the sample which was sweeter and evaluated the sweetness of each sample relative to one another.
In a second tasting sequence, this same procedure was followed for the water negative control versus the sweetness enhancer/water samples to determine the sweet taste due to the sweetness enhancer itself at each tested concentration.
Panelists evaluated the sweetness of the sweetness enhancer in water for each concentration. For their evaluation, panelists were allowed to compare any perceived sweetness of the sweetness enhancer to the 2% or 7% sucrose control to determine the relative intensity of sweetness. Mild sweet taste corresponds to the taste of 2% sucrose, strong sweet taste corresponds to the taste of 7% sucrose.
Alternatively to sucrose, the evaluation may be performed with another sweetener, for example, high fructose (55%) corn syrup (HFCS, containing 55% fructose and 45% glucose), erythritol, sucralose, aspartame, or acesulfame potassium (AceK).

[4] = system: sweet sensitive panelists; assay: Ranking test, sweetness isointensity of enhancer in sweetener solution (Example 3a)
Procedure: Ranking Tests to Determine the Sweetness Isointensity of Sweetness Enhancers to Sucrose Solutions
For comparative ranking, samples of 0.5%, 1%, 1.5%, 7%, 8%, 9%, 10% and 11% sucrose solutions were prepared.
3a) Sweetness Isointensity of Sweetness Enhancer in Sucrose Solutions
The sensory evaluation was conducted using a ranking method. Samples at ambient temperature were randomly presented in 15 ml blind aliquots (unidentifiable by panelists). Panels consisted of 10 sweet sensitive subjects and samples were presented in 4 replications over 2 sessions. After tasting each sample, the mouth was rinsed thoroughly with water at ambient temperature prior to tasting the next sample. Panelists were presented with 7%, 8%, 9%, 10%, 11% sucrose samples and a sixth sample of 7% sucrose with a sweetness enhancer in a concentration near its sweetness detection threshold. They were asked to rank the samples from low to high with respect to perceived sweet taste. R-indices were calculated for 7% sucrose with the sweetness enhancer versus 7%, 8%, 9%, 10% or 11% sucrose.

sweet sensitive subjects = assay: Sweetness quality evaluation (time of onset, localization, duration)
Procedure: (§1) Rebaudioside A (99%+, purified from plant extract, Sweet Aloha Farms, LLC) (1 ppm, 10 ppm, 20 ppm, 30 ppm) in 2% sucrose samples was evaluated for the qualities of the sweetness of the samples (time of onset, localization, duration). The sensory evaluations were conducted as follows. All samples were presented at ambient temperature in 15 ml aliquots and presented blindly to sweet sensitive subjects of varying sweet sensitivity. Subjects tasted the samples and were asked to evaluate the quality of sweetness. Sucrose solutions (2% and 7%) were presented as references.
Rebaudioside A (99%+, purified from plant extract, Sweet Aloha Farms, LLC) (1 ppm, 10 ppm, 20 ppm, 30 ppm) in 7% sucrose samples were evaluated for the qualities of the sweetness of the samples (time of onset, localization, duration). The sensory evaluations were conducted as follows. All samples were presented at ambient temperature in 15 ml aliquots and presented blindly to sweet sensitive subjects of varying sweet sensitivity. Subjects tasted the samples and were asked to evaluate the quality of the sweetness. Sucrose solutions (2% and 7%) were presented as references to evaluate the sweetness of the rebaudioside A samples.
as §1, with “Stevioside extract (95%+,” for “Rebaudioside A (99%+,”, “Apin Chemicals) (20” for “Sweet Aloha Farms, LLC) (1 ppm, 10 ppm, 20”, “30 ppm, 40 ppm, 50” for “30”, “ppm) was evaluated” for “ppm)”, “sucrose” for “sucrose samples was evaluated”, “sweetness qualities.” for “quality of sweetness.”
Stevioside (20 ppm, 30 ppm, 40 ppm, 50 ppm) was evaluated in 7% sucrose for the qualities of the sweetness of the samples (time of onset, localization, duration). The sensory evaluations were conducted as follows. All samples were presented at ambient temperature in 15 ml aliquots and presented blindly to sweet sensitive subjects of varying sweet sensitivity. Subjects tasted the samples and were asked to evaluate the sweetness qualities. Sucrose solutions (2% and 7%) were presented as references to evaluate the sweetness of the stevioside samples.

[5] = 45 ppm in water vs 0.5% sucrose
[6] = 50 ppm in water vs 0.5% sucrose
[7] = 60 ppm in water vs 1.5% sucrose

C[C@@H]1O[C@@H](OC2C(Oc3cc(O)c(C(=O)CCc4ccc(O)cc4)c(O)c3)OC(CO)C(O)C2O)[C@H](O)[C@H](O)[C@H]1O (stereo in doubt) [NarDHC, -[4-[[2-O-(6-Deoxy-L-mannopyranosyl)-D-glucopyranosyl]oxy]-2,6-dihydroxyphenyl]-3-(4-hydroxyphenyl)-1-propanone]
Result of comparison ([1]; 45 ppm in water vs 0% sucrose): weakly sweeter
Result of comparison [1, 5]: isosweet
Result of comparison ([1]; 45 ppm in water vs 1% sucrose): less sweet
Result of comparison [1, 6]: notably sweeter
Result of comparison ([1]; 50 ppm in water vs 1% sucrose): less sweet
isointensity to sucrose solution ([1]; 55 ppm in water): 1 % sucrose
Result of comparison ([1]; 55 ppm in water vs 0.5% sucrose): notably sweeter
Result of comparison ([1]; 55 ppm in water vs 1% sucrose): isosweet
Result of comparison ([1]; 60 ppm in water vs 1% sucrose): notably sweeter
Result of comparison [1, 7]: significantly less sweet
isointensity to sucrose solution ([2]; 45 ppm in water): 0.5 % sucrose
sample sweetness (NarDHC, 45 ppm) [2, 5]: Isosweet
sample sweetness (NarDHC, 45 ppm) ([2]; 45 ppm in water vs 1% sucrose): less sweet
sample sweetness (NarDHC, 60 ppm) ([2]; 60 ppm in water vs 0.5% sucrose): sweeter
sample sweetness (NarDHC, 60 ppm) ([2]; 60 ppm in water vs 1% sucrose): sweeter
sample sweetness (NarDHC, 60 ppm) [2, 7]: less sweet
Sensory evaluation of sweetness intensity ([3]; 20 ppm in 2% sucrose): notably sweeter than sucrose control
Sensory evaluation of sweetness intensity ([3]; 20 ppm in water): barely perceived delayed sweetness vs. 2% sucrose
Sensory evaluation of sweetness intensity ([3]; 60 ppm in 2% sucrose): much sweeter than sucrose control
Sensory evaluation of sweetness intensity ([3]; 60 ppm in water): very weak delayed sweetness far below 2% sucrose
Sensory evaluation of sweetness intensity ([3]; 100 ppm in 2% sucrose): substantially sweeter than 2% sucrose control
Sensory evaluation of sweetness intensity ([3]; 100 ppm in water): mild sweetness slightly below 2% sucrose control
added sucrose sweetness intensity ([4]; 45 ppm in 7% sucrose): 1 ° Brix
sweetness isointensity to sucrose ([4]; 45 ppm in 7% sucrose): 8 % sucrose
NarDHC sample sweetness ([4]; 45 ppm in 7% sucrose vs 7% sucrose): sweeter
NarDHC sample sweetness ([4]; 45 ppm in 7% sucrose vs 8% sucrose): isosweet
NarDHC sample sweetness ([4]; 45 ppm in 7% sucrose vs 9% sucrose): less sweet
NarDHC sample sweetness ([4]; 45 ppm in 7% sucrose vs 10% sucrose): less sweet
NarDHC sample sweetness ([4]; 45 ppm in 7% sucrose vs 11% sucrose): less sweet
added sucrose sweetness intensity ([4]; 60 ppm in 7% sucrose): 2 ° Brix
sweetness isointensity to sucrose ([4]; 60 ppm in 7% sucrose): 9 % sucrose
NarDHC sample sweetness ([4]; 60 ppm in 7% sucrose vs 7% sucrose): Sweeter
NarDHC sample sweetness ([4]; 60 ppm in 7% sucrose vs 8% sucrose): Sweeter
NarDHC sample sweetness ([4]; 60 ppm in 7% sucrose vs 9% sucrose): Isosweet
NarDHC sample sweetness ([4]; 60 ppm in 7% sucrose vs 10% sucrose): less sweet
NarDHC sample sweetness ([4]; 60 ppm in 7% sucrose vs 11% sucrose): less sweet

C=C1C[C@@]23CC[C@H]4[C@@](C)(CCC[C@@]4(C)C(=O)O[C@@H]4O[C@H](CO)[C@@H](O)[C@H](O)[C@H]4O)[C@@H]2CC[C@]1(O[C@@H]1O[C@H](CO)[C@@H](O)[C@H](O)[C@H]1O[C@@H]1O[C@H](CO)[C@@H](O)[C@H](O)[C@H]1O)C3 [Stevioside]
Sensory evaluation of sweetness intensity (onset, localisation, duration) (sweet sensitive subjects; 20 ppm in 2% sucrose): immediate onset, full mouth sweet, not lingering
Sensory evaluation of sweetness intensity (onset, localisation, duration) (sweet sensitive subjects; 20 ppm in 7% sucrose): immediate onset, full mouth sweet, not lingering
Sensory evaluation of sweetness intensity (onset, localisation, duration) (sweet sensitive subjects; 30 ppm in 2% sucrose): immediate onset, full mouth sweet, not lingering
Sensory evaluation of sweetness intensity (onset, localisation, duration) (sweet sensitive subjects; 30 ppm in 7% sucrose): immediate onset, full mouth sweet, not lingering
Sensory evaluation of sweetness intensity (onset, localisation, duration) (sweet sensitive subjects; 40 ppm in 2% sucrose): immediate onset, full mouth sweet, not lingering
Sensory evaluation of sweetness intensity (onset, localisation, duration) (sweet sensitive subjects; 40 ppm in 7% sucrose): immediate onset, full mouth sweet, not lingering
Result of comparison ([1]; 20 ppm in water vs 0% sucrose): weakly sweeter
Result of comparison ([1]; 20 ppm in water vs 0.5% sucrose): notably less sweet
isointensity to sucrose solution ([1]; 30 ppm in water): 0.5 % sucrose
Result of comparison ([1]; 30 ppm in water vs 0% sucrose): weakly sweeter
Result of comparison ([1]; 30 ppm in water vs 0.5% sucrose): isosweet
Result of comparison ([1]; 30 ppm in water vs 1% sucrose): significantly less sweet
Result of comparison ([1]; 40 ppm in water vs 0.5% sucrose): notably sweeter
Result of comparison ([1]; 40 ppm in water vs 1% sucrose): less sweet
isointensity to sucrose solution ([1]; 40 ppm in water, by interpolation): 0.75 % sucrose
isointensity to sucrose solution ([1]; 50 ppm in water): 1 % sucrose
Result of comparison [1, 6]: sweeter
Result of comparison ([1]; 50 ppm in water vs 1% sucrose): isosweet
Result of comparison ([1]; 50 ppm in water vs 1.5% sucrose): significantly less sweet
Result of comparison ([1]; 60 ppm in water vs 1% sucrose): notably sweeter
Result of comparison [1, 7]: less sweet
isointensity to sucrose solution ([1]; 60 ppm in water, by interpolation): 1.25 % sucrose
Sensory evaluation of sweetness intensity ([3]; 20 ppm in 2% sucrose): notably sweeter than sucrose control
Sensory evaluation of sweetness intensity ([3]; 20 ppm in 7% sucrose): notably sweeter than sucrose control
Sensory evaluation of sweetness intensity ([3]; 20 ppm in water (Example 9A)): barely detectable sweetness
Sensory evaluation of sweetness intensity ([3]; 20 ppm in water (Example 9B)): barely detectable sweetness
Sensory evaluation of sweetness intensity ([3]; 30 ppm in 2% sucrose): much sweeter than sucrose control
Sensory evaluation of sweetness intensity ([3]; 30 ppm in 7% sucrose): notably sweeter than sucrose control
Sensory evaluation of sweetness intensity ([3]; 30 ppm in water (Example 9A)): very weak, late onsetting sweetness
Sensory evaluation of sweetness intensity ([3]; 30 ppm in water (Example 9B)): very weak, late onsetting sweetness
Sensory evaluation of sweetness intensity ([3]; 40 ppm in 2% sucrose): much sweeter than sucrose control
Sensory evaluation of sweetness intensity ([3]; 40 ppm in 7% sucrose): much sweeter than sucrose control
Sensory evaluation of sweetness intensity ([3]; 40 ppm in water (Example 9A)): weak late onsetting sweetness
Sensory evaluation of sweetness intensity ([3]; 40 ppm in water (Example 9B)): weak sweetness, late onsetting sweetness
Sensory evaluation of sweetness intensity ([3]; 50 ppm in 2% sucrose): much sweeter than sucrose control
Sensory evaluation of sweetness intensity ([3]; 50 ppm in 7% sucrose): much sweeter than sucrose control
Sensory evaluation of sweetness intensity ([3]; 50 ppm in water (Example 9A)): weak sweetness, faster onset than 40 ppm,
Sensory evaluation of sweetness intensity ([3]; 50 ppm in water (Example 9B)): weak sweetness, faster onset than 40 ppm,
Sensory evaluation of sweetness intensity ([3]; 60 ppm in 2% sucrose): substantially sweeter than sucrose control
Sensory evaluation of sweetness intensity ([3]; 60 ppm in 7% sucrose): substantially sweeter than sucrose control
Sensory evaluation of sweetness intensity ([3]; 60 ppm in water (Example 9A)): weak sweetness, faster onset than 50 ppm,
Sensory evaluation of sweetness intensity ([3]; 60 ppm in water (Example 9B)): weak sweetness, faster onset than 50 ppm,
